Data on one molecule can be found in patent US20180021277A1, “ANTI-VIRULENCE COMPOSITIONS AND METHODS” (priority 2012, published 2018).

Assay [1] has as its system MRSA USA300. The class given is in vivo, mice. To be noted: topical twice a day for seven days, day 8.
The next assay has as its system Bacillus cereus. The assay is described as follows: Host cell damage assay (LDH leakage), Bacillus cereus. The class given is cell-based. As to conditions: THP-1 human monocytes. As to the method:
(§1) Damage to host cells was measured by leakage of lactate dehydrogenase (LDH) with the CytoTox 96 Non-Radioactive Cytotoxicity LDH Assay Promega Kits G178 and G1782 according to manufacturer's instructions.
(§2) Overnight cultures of the bacterial strain to be tested were spun down, washed, diluted 1:4 and incubated with broth containing 10-50 μg/ml of F19 or containing 2% DMSO as control. The bacteria were cultured at 37° C., in a shaking incubator for 6 h at which time 20 μL of bacterial culture was added to 5×10^4 THP-1 monocytes or J774.2 macrophages in 100 μL of cell media (DMEM for J774.2 cells and RPMI for THP-1 cells) in 96 well plates. Bacteria and macrophage/monocytes were incubated together for 40 min at 37° C. Plates were then spun at 250 g for 4 min and 50 μL of the supernatant was removed to a new 96 well plate. 50 μL of substrate mix+assay buffer were added and incubated at room temperature for 10-30 min depending upon the rate of product formation and stopped by addition of 50 μL stop solution. The colorometric products were read at 490 nm on a Victor 3 plate reader. The data presented are from experiments performed in triplicate.
(§3) Gram-positive pathogens compromise host cell defense factors by puncturing membranes of immune system cells. To examine F19 efficacy in preventing host cell damage by various pathogens cell lysis assays were carried out by measuring leakage of lactate dehydrogenase (LDH) from cells. F19 indeed inhibits pathogen-mediated lysis of human THP-1 monocytes and mouse macrophage cell line J7774.2 by a series of Gram-positive pathogens, including MRSA, MRSE, Streptococcus pyogenes, Streptococcus pneumoniae and Bacillus cereus in a dose dependent manner (Table 2 for MRSA, Table 4 for other pathogens).

Assay [2] addresses T1, AgrA_C from S. epidermidis / P3 DNA (Staphylococcus epidermidis, UniProt Q5HMY2).
T1 sequence (Q5HMY2 143-238): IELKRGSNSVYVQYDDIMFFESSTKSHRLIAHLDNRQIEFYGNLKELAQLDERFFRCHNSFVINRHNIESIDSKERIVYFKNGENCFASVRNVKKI
Description: Electrophoretic mobility shift assay of AgrA_C from S. epidermidis with P3 DNA. The class given is binding. To be noted: 1 nM P3 DNA, 1 μM AgrA_C, increasing F19, 1% DMSO. As to the method:
FIG. 8 illustrates Electrophoretic mobility shift assay of AgrA_C from S. epidermidis as a function of F19 concentration. […] P3 DNA was radiolabeled with 32P. The concentrations of P3 DNA and AgrA_C were 1 nM and 1 μM, respectively. F19 was titrated in at increasing concentrations while maintaining a constant concentration of 1% DMSO.

The next assay deals with MRSE Q-15. Description: Biofilm measurement (crystal violet), MRSE. The class given is cell-based, Staphylococcus epidermidis. To be noted: control = 100. How it is done: Bacterial cells were grown in Luria Broth overnight and an OD600 of 0.5 corresponding to 10^6 cfu/mL. 200 μL of this bacterial culture was plated with the presence of compound at various concentrations. Biofilm was allowed to form by placing the plate at 37° C. in the incubator without shaking. The plate was then washed 2× with water while being careful not to disturb the biofilm. Water was aspirated out and the plate was baked dry in a 60° C. incubator for 2 h. 125 μL of a 0.06% crystal violet solution ([…] in H2O) was added to each well and allowed to sit at room temperature for 15 minutes. […] The plate was inverted on a paper towel to dry overnight.125 μL of 30% acetic acid was added to each well and was left at room temperature for 15 minutes. The wells were mixed by pipetting and the solution was transferred to a clean 96-well plate and read at OD595.

The subject of assay [3] is MRSA strain lacking the agr operon (Lac Δagr). The assay is described as follows: Biofilm formation in MRSA strain lacking the agr operon. The format is cell-based, Staphylococcus aureus. To be noted: data not shown.
Assay [4] addresses T2, AgrA_C from Staphylococcus epidermidis (Staphylococcus epidermidis, UniProt Q5HMY2).
T2 sequence (Q5HMY2 143-238 limits assumed): T1 sequence (Q5HMY2 143-238)
Description: Microscale thermophoresis binding to AgrA_C from S. epidermidis. As to conditions: compared with S. aureus AgrA_C; data not shown. How it is done:
The AgrA C proteins from S. aureus and S. epidermidis were fluorescently labeled with Alexa Fluor 647 NHS ester and purified on Zeba spin columns. Compound F19 was diluted as a gradient through the capillaries while protein concentrations were maintained constant. Measurements were performed on a Nanotemper Monolith NT.115 apparatus. Lysozyme and known inhibitor N,N′,N″-triacetylchitotriose (Fisher Scientific) were used as controls.

Assay [5] has as its system MRSA USA300. Description: Host cell damage assay (LDH leakage), MRSA. The class given is cell-based, Staphylococcus aureus. To be noted: for % Damage (LDH Leakage): THP-1 human monocytes; for Damage (%): Table 2, control = 100. As to the method: as §1
as §2, with “Overnight cultures of the bacterial strain to be tested were spun down, washed, diluted 1:4 and incubated with broth containing 10-50 μg/ml of F19 or containing 2% DMSO as control.” left out
as §3

For assay [6], the system named is MRSA USA300. The assay is described as follows: Emergence of resistance in vitro: daily passaging with hemolysis read-out. The class given is cell-based, Staphylococcus aureus. To be noted: 50 μg/mL, 16 daily passages; listed as F19.
In another assay the test system is MRSA. The assay is described as follows: CFU counts of F19 treated vs. untreated MRSA cultures (serial dilution-plating). The class given is cell-based, Staphylococcus aureus.

“Also recorded” adds a separate entry of the source.

Consider `CCCCCCc1cc(C(=O)COc2ccc(C(C)C)cc2)c(O)cc1O` [4f-19], for which the “bacterial load on the wounds compared to vehicle-treated or untreated wounds” value in the assay on MRSA USA300 [1] is “did not reduce the bacterial load on the wounds”. In addition, the “tissue burden of the wound, average log CFUs ± standard deviation” value in the assay on MRSA USA300 [1] (cephalothin 30 mg/kg, F19 20 mg/kg, vancomycin 30 mg/kg) came to 8.50±0.4 log CFU. Further, the “% Damage (LDH Leakage)” value amounted to 63.7 ± 1.3% with Bacillus cereus (F19 30 μg/mL); 52.0 ± 0.1% in the assay on Bacillus cereus (F19 40 μg/mL); 69.7 ± 1.2% in the assay with Bacillus cereus (F19 50 μg/mL); 62.0 ± 0.6% in the assay on MRSA USA300 [5] (F19 1 μg/mL); 44.2 ± 2.0% in the assay with MRSA USA300 [5] (F19 10 μg/mL); 29.1 ± 1.6% in the assay on MRSA USA300 [5] (F19 50 μg/mL). In [2], the “formation of the protein-nucleic acid complex (EMSA)” value was “prevent the formation of the protein—nucleic acid complex”. In addition, the “Biofilm (%)” value in the assay with MRSE Q-15 (F19 1 μg/ml) is 92.2 ± 9.8%; in the assay with MRSE Q-15 (F19 10 μg/ml), 69.3 ± 10.7%; in the assay on MRSE Q-15 (F19 50 μg/ml), 34.1 ± 9.8%. The “biofilm formation in Lac Δagr” value in assay [3] is “biofilm inhibition was also observed”. The “affinity to AgrA_C from Staphylococcus epidermidis” value in [4] is given as “Statistically identical affinity”. Further, the “Damage (%)” value in the assay with MRSA USA300 [5] (F19 1 μg/ml) is 62.0 ± 0.6%; in the assay on MRSA USA300 [5] (F19 10 μg/ml), 44.2 ± 2.0%; in the assay on MRSA USA300 [5] (F19 50 μg/ml), 29.1 ± 1.6%. In the assay with MRSA USA300 [6], the “emergence of resistance/tolerance: hemolysis of rabbit blood over daily passages” value was “no increase in hemolysis; also recorded: No emergence of resistance”. In the assay with MRSA, the “CFU counts, F19 treated vs. untreated cultures” value is given as “identical CFU counts”.
